Assays:
Assay type in all cases: binding
[1] = molecular target: T1, Bcl-2 (Homo sapiens, UniProt P10415); assay: Bcl2/Bim fluorescence polarization assay (FPA); conditions: BIM BH3 peptide 5 nM, Bcl-2 11 nM, Ki calculated from FPA data
T1 construct: without their C-terminal transmembrane domain; GST; made in house
Text: (§1) Compounds were profiled for their ability to disrupt in vitro binding interactions in fluorescence polarization assays (FPAs) using synthetic fluorochrome-labeled Bcl homology 3 (BH3) peptides derived from BIM [(FAM)-Ahx-[…]-NH2 (SEQ ID NO: 1) (GenBank Accession No. O43521)] or BAK [Ac-GQVGRQLAIIGE-LYS(FAM)-INR-NH2 (SEQ ID NO:2) (GenBank Accession No. Q16611) amino acid sequences and four bacterial recombinant proteins [Bcl-b (GenBank Accession No. Q9HD36), Bcl-2 (GenBank Accession No. P10415), Bcl-Xl (GenBank Accession No. Q07817), Mcl-1 (GenBank Accession No. Q07820)] without their C-terminal transmembrane domain. Proteins were purified from bacterial lysates using their glutathione S-transferase (GST)-tag (Bcl-b, Bcl-2, Mcl-1) or His6-tag (Bcl-Xl) and following one-step affinity chromatography procedures. Dissociation constants (Kd) for peptide binding protein were determined by fluorescence polarization in FPAs measuring BIM BH3 peptide binding Bcl-b, Mcl-1 or Bcl-2 protein or BAK BH3 peptide binding Bcl-Xl protein. The Kd values were generated by fitting the experimental data using a sigmoidal dose-response nonlinear regression model.
(§2) Compound inhibitory concentration values, IC50 (50% reduction in fluorescence polarization), were determined using fluorochrome-labeled BH3 peptides and recombinant Bcl proteins in fluorescence polarization assays (FPAs). Compounds diluted in DMSO (0.5 ul) were transferred (in duplicate) to individual wells of a 384-well plate. The fluorochrome-labeled peptide was added followed by recombinant protein addition. Each binding FPA reaction (50 ul) contained BIM BH3 peptide (5 nM) or BAK BH3 peptide (1.5 nM) and Bcl-b (40 nM), Mcl-1 (28 nM), Bcl-2 (11 nM) or Bcl-Xl. (5 nM) protein suspended in assay buffer [20 mM sodium phosphate, pH 7.4, 1 mM EDTA, 50 mM NaCl., 0.05% Pluronic F68]. Reaction mixtures were incubated at ambient temperature for 60 minutes prior to measuring polarization (mP) using an Analyst (LJL, Molecular Devices, Sunnyvale, Calif.) programmed to detect an emission wavelength of 530 nm after excitation (excitation wavelength=485 nm).
(§3) Competitive compound inhibition constants (Ki) were calculated using FPA experimental data and a mathematical equation, Ki=[I]50/([L]50/Kd+[P]0/Kd+1), where [I]50 denotes free inhibitor concentration at 50% inhibition, [L]50 is free labeled ligand concentration at 50% inhibition, [P]0 is free protein concentration at 0% inhibition, and Kd is the dissociation constant of the protein-ligand complex.

[2] = molecular target: T2, Mcl-1 (Homo sapiens, UniProt Q07820); assay: Mcl-1/Bim fluorescence polarization assay (FPA); conditions: BIM BH3 peptide 5 nM, Mcl-1 28 nM, Ki calculated from FPA data
T2 construct: without their C-terminal transmembrane domain; GST; made in house
T2 sequence (Q07820 1-327 limits assumed): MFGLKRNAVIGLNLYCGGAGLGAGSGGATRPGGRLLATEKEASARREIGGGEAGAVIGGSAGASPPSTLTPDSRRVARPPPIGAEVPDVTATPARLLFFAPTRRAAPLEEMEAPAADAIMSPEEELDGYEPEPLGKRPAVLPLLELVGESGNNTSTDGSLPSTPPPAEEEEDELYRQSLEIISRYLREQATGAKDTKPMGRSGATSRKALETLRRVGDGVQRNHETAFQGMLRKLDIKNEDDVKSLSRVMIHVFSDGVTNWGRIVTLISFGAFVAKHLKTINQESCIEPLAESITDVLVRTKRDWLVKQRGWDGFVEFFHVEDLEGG
Text: as §1, §2, §3

[3] = molecular target: T3, Bcl-b (Homo sapiens, UniProt Q9HD36); assay: Bclb/Bim fluorescence polarization assay (FPA); conditions: BIM BH3 peptide 5 nM, Bcl-b 40 nM, Ki calculated from FPA data
T3 construct: without their C-terminal transmembrane domain; GST; made in house
T3 sequence (Q9HD36 1-182 limits assumed): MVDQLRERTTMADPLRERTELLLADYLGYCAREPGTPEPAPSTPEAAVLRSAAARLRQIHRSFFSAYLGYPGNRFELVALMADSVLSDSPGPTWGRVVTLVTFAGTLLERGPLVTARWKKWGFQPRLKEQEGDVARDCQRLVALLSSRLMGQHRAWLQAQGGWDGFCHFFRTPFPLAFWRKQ
Text: as §1, §2, §3

T1 sequence (P10415 1-211 limits assumed): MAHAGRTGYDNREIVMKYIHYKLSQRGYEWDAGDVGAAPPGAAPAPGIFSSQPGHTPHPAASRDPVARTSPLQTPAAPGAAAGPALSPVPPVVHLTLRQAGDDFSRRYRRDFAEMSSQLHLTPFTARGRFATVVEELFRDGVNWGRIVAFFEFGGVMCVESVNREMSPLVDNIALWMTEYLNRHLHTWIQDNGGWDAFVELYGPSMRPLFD

Row | Ki [1] [nM] | Ki [2] [nM] | Ki [3] [nM] | Structure (SMILES)
1 | 20 | 30 | 90 | Cc1ccc(S(=O)(=O)N(Cc2ccc(F)cc2)Cc2cc(CNS(=O)(=O)c3cc(Cl)cc(Cl)c3O)cc(-c3ccc(F)cc3)c2)cc1 [Example 13, 3,5-Dichloro-N-((4′-fluoro-5-((N-(4-fluorobenzyl)-4-methylphenylsulfonamido)methyl)biphenyl-3-yl)methyl)-2-hydroxybenzenesulfonamide]
2 | 10 | 10 | 80 | CC(C)CN(Cc1cc(Cl)cc(CN(CC(C)C)S(=O)(=O)c2cc(Cl)cc(Cl)c2O)c1)S(=O)(=O)c1cccnc1 [Example 15]
3 | 500 | 1020 | 133 | CCN(CC)CCOc1ccc(CN(Cc2cccc(CNS(=O)(=O)c3cc(Cl)cc(Cl)c3O)c2)S(=O)(=O)c2cc(Cl)cc(Cl)c2O)cc1 [Example 61, 3,5-dichloro-N-(3-((3,5-dichloro-2-hydroxyphenylsulfonamido)methyl)benzyl)-N-(4-(2-(diethylamino)ethoxy)benzyl)-2-hydroxybenzenesulfonamide]
4 | 319 | 384 | 144 | CC(C)CN(Cc1cc(Cl)cc(CN(CC(C)C)S(=O)(=O)c2cc(Cl)cc(Cl)c2O)c1)C(=O)c1cccc(S(=O)(=O)C(F)(F)F)c1 [Example 73, N-(3-chloro-5-((3,5-dichloro-2-hydroxy-N-isobutylphenylsulfonamido)methyl)benzyl)-N-isobutyl-3-(trifluoromethylsulfonyl)benzamide]
5 | 133 | 194 | 77 | CS(=O)(=O)c1cccc(CN(Cc2cc(CNC(=O)c3cccc(Oc4ccccc4)c3)cc(Oc3ccc(F)cc3)c2)S(=O)(=O)c2cc(Cl)cc(Cl)c2O)c1 [Example 77, N-(3-((3,5-dichloro-2-hydroxy-N-(3-(methylsulfonyl)benzyl)phenylsulfonamido)methyl)-5-(4-fluorophenoxy)benzyl)-3-phenoxybenzamide]
6 | 120 | 70 | 60 | O=C(c1cccc(CN(Cc2ccc(F)cc2)S(=O)(=O)c2cc(Cl)cc(Cl)c2O)c1)N(Cc1ccc(F)cc1)Cc1cc(Cl)cc(Cl)c1 [Example 95, 3-((3,5-Dichloro-N-(4-fluorobenzyl)-2-hydroxyphenylsulfonamido)methyl)-N-(3,5-dichlorobenzyl)-N-(4-fluorobenzyl)benzamide]
7 | 110 | 10 | 60 | O=S(=O)(c1cc(Cl)cc(Cl)c1O)N(Cc1ccc(F)cc1)Cc1ccc(CN(Cc2ccc(F)cc2)S(=O)(=O)c2cc(Cl)cc(Cl)c2O)cc1 [Example 96, N-(4-Fluoro-benzyl)-N-(4-{[(4-fluoro-benzyl)-(3,5-dichloro-2-hydroxybenzene)sulfonyl-amino]-methyl}-benzyl)-3,5-dichloro-2-hydroxybenzenesulfonamide]

The next lines start with the compound.

Row | Structure (SMILES) | Ki [1] [nM] | Ki [2] [nM] | Ki [3] [nM]
8 | O=C(NCc1cccc(CN(Cc2ccc(F)cc2)S(=O)(=O)c2cc(Cl)cc(Cl)c2O)c1)c1cc(O)nc(O)c1 [Example 2, N-(3-((3,5-Dichloro-N-(4-fluorobenzyl)-2-hydroxyphenylsulfonamido)methyl)benzyl)-2,6-dihydroxyisonicotinamide] | 20 | 20 | 50
9 | N#Cc1ccc(S(=O)(=O)NCc2cccc(CN(Cc3ccc(-c4ccccc4)cc3)S(=O)(=O)c3cc(Cl)cc(Cl)c3O)c2)cc1 [Example 4, N-(Biphenyl-4-ylmethyl)-3,5-dichloro-N-(3-((4-cyanophenylsulfonamido)methyl)benzyl)-2-hydroxybenzenesulfonamide] | 60 | 60 | 280
10 | Cc1ccc(S(=O)(=O)N(Cc2cc(CN(Cc3ccc(F)cc3)S(=O)(=O)c3cc(Cl)cc(Cl)c3O)cc(Oc3ccc(F)cc3)c2)CC(C)C)cc1 [Example 8, 3,5-Dichloro-N-(4-fluorobenzyl)-N-(3-(4-fluorophenoxy)-5-((N-isobutyl-4-methylphenylsulfonamido)methyl)benzyl)-2-hydroxybenzenesulfonamide] | 10 | 40 | 100
11 | COc1ccc(S(N)(=O)=O)cc1C(=O)NCc1cccc(CN(Cc2ccc(-c3ccccc3)cc2)S(=O)(=O)c2cc(Cl)cc(Cl)c2O)c1 [Example 39, N-(3-((N-(biphenyl-4-ylmethyl)-3,5-dichloro-2-hydroxyphenyl-sulfonamido)methyl)benzyl)-2-methoxy-5-sulfamoylbenzamide] | 153 | 207 | 289
12 | O=C(O)c1ccc(S(=O)(=O)NCc2cccc(CN(Cc3ccc(-c4ccccc4)cc3)S(=O)(=O)c3cc(Cl)cc(Cl)c3O)c2)cc1 [Example 49, 4-(N-(3-((N-(biphenyl-4-ylmethyl)-3,5-dichloro-2-hydroxyphenyl-sulfonamido)methyl)benzyl)sulfamoyl)benzoic acid] | 347 | 204 | 138
13 | CS(=O)(=O)c1ccc(CN(Cc2cccc(CNS(=O)(=O)c3cc(Cl)cc(Cl)c3O)c2)S(=O)(=O)c2cc(Cl)cc(Cl)c2O)cc1 [Example 56, 3,5-dichloro-N-(3-((3,5-dichloro-2-hydroxyphenyl-sulfonamido)methyl)benzyl)-2-hydroxy-N-(4-(methylsulfonyl)benzyl) benzenesulfonamide] | 148 | 187 | 103
14 | O=S(=O)(NCc1cccc(CN(Cc2ccccc2SC(F)(F)F)S(=O)(=O)c2cc(Cl)cc(Cl)c2O)c1)c1cc(Cl)cc(Cl)c1O [Example 64] | 96 | 169 | 74
15 | CC(C)CN(Cc1cc(Cl)cc(CN(CC(C)C)S(=O)(=O)c2cc(Cl)cc(Cl)c2O)c1)C(=O)c1ccc(SC(F)(F)F)cc1 [Example 71, N-(3-chloro-5-((3,5-dichloro-2-hydroxy-N-isobutylphenylsulfonamido)methyl)benzyl)-N-isobutyl-4-(trifluoromethylthio)benzamide] | 469 | 970 | 247
16 | CC(C)CN(Cc1cc(Cl)cc(CN(CC(C)C)S(=O)(=O)c2cc(Cl)cc(Cl)c2O)c1)C(=O)c1cccc(SC(F)(F)F)c1 [Example 72, N-(3-chloro-5-((3,5-dichloro-2-hydroxy-N-isobutylphenylsulfonamido)methyl)benzyl)-N-isobutyl-3-(trifluoromethylthio)benzamide] | 349 | 1150 | 182
17 | O=S(=O)(c1cc(Cl)cc(Cl)c1)N(Cc1ccc(F)cc1)Cc1cccc(CN(Cc2ccc(F)cc2)S(=O)(=O)c2cc(Cl)cc(Cl)c2O)n1 [Example 91, 3,5-dichloro-N-((6-((3,5-dichloro-N-(4-fluorobenzyl)phenylsulfonamido)methyl)pyridin-2-yl)methyl)-N-(4-fluorobenzyl)-2-hydroxybenzenesulfonamide] | 42 | 52 | 33
18 | O=S(=O)(c1cc(Cl)cc(Cl)c1)N(Cc1ccc(F)cc1)Cc1cccc(CN(Cc2ccc(F)cc2)S(=O)(=O)c2cc(Cl)cc(Cl)c2O)[n+]1[O-] [Example 92, 2-((3,5-dichloro-N-(4-fluorobenzyl)-2-hydroxyphenylsulfonamido)methyl)-6-((3,5-dichloro-N-(4-fluorobenzyl)phenylsulfonamido)methyl)pyridine 1-oxide] | 46 | 60 | 12
19 | O=S(=O)(c1cccc(CN(Cc2ccc(F)cc2)S(=O)(=O)c2cc(Cl)cc(Cl)c2O)c1)N(Cc1ccc(F)cc1)Cc1cc(Cl)cc(Cl)c1 [Example 94, 3,5-Dichloro-N-(3-(N-(3,5-dichlorobenzyl)-N-(4-fluorobenzyl)sulfamoyl)benzyl)-N-(4-fluorobenzyl)-2-hydroxybenzenesulfonamide] | 60 | 60 | 40

From US8501992B2, “Hydroxyphenyl sulfonamides as antiapoptotic bcl inhibitors” (Bristol-Myers Squibb Company, priority 2008, dated 2013)
